Laboratory results reported in ChEMBL document CHEMBL4014283, “Structural insights of SmKDAC8 inhibitors: Targeting Schistosoma epigenetics through a combined structure-based 3D QSAR, in vitro and synthesis strategy” (Bioorg Med Chem, 2017).

Experiments:
[1] = target: KDAC1 (histone deacetylase 1) (Homo sapiens, UniProt Q13547); test: Inhibition of full length human C-terminal FLAG/His-tagged KDAC1 expressed in baculovirus expression system at 30 uM using substrate A after 60 mins by microfluidic assay relative to control; conditions: probe substrate A
KDAC1 (histone deacetylase 1), sequence (Q13547 whole entry, the tested form may be a part): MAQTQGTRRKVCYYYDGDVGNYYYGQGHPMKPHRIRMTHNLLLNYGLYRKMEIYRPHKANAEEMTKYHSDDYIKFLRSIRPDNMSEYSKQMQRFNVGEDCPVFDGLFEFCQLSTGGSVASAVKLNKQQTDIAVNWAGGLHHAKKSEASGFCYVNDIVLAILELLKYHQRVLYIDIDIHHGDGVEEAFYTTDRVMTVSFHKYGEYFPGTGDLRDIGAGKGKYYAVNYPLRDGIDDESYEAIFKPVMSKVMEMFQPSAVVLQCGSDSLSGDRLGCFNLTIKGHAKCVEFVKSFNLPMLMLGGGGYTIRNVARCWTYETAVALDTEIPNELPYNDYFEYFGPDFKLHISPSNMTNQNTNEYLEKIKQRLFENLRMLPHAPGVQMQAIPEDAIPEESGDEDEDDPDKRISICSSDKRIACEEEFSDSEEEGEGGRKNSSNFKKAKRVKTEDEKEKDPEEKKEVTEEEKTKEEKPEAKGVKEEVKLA

[2] = target: KDAC3/NCOR2 (histone deacetylase 3/nuclear receptor corepressor 2 complex) (Homo sapiens, UniProt O15379); test: Inhibition of full length human C-terminal His-tagged KDAC3/N-terminal GST-tagged human NCOR2 (395 to 489 residues) expressed in baculovirus expression system at 30 uM using FITC-p53 acetylated peptide as substrate after 60 mins by microfluidic assay; conditions: probe FITC-p53 acetylated peptide
KDAC3/NCOR2 (histone deacetylase 3/nuclear receptor corepressor 2 complex), sequence (O15379 whole entry, the tested form may be a part): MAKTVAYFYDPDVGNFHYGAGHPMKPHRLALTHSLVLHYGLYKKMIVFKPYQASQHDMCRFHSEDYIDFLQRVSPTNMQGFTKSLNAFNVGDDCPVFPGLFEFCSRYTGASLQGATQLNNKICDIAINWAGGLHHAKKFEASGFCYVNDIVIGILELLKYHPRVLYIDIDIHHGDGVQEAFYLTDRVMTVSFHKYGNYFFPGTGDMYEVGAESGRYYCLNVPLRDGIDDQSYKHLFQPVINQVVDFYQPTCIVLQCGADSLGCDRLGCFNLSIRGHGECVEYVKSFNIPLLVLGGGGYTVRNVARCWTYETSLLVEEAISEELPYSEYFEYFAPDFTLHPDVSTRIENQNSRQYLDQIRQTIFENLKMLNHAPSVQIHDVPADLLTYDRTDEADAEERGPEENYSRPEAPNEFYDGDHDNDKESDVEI
KDAC3/NCOR2 (histone deacetylase 3/nuclear receptor corepressor 2 complex), sequence (Q9Y618 whole entry, further chain, the tested form may be a part): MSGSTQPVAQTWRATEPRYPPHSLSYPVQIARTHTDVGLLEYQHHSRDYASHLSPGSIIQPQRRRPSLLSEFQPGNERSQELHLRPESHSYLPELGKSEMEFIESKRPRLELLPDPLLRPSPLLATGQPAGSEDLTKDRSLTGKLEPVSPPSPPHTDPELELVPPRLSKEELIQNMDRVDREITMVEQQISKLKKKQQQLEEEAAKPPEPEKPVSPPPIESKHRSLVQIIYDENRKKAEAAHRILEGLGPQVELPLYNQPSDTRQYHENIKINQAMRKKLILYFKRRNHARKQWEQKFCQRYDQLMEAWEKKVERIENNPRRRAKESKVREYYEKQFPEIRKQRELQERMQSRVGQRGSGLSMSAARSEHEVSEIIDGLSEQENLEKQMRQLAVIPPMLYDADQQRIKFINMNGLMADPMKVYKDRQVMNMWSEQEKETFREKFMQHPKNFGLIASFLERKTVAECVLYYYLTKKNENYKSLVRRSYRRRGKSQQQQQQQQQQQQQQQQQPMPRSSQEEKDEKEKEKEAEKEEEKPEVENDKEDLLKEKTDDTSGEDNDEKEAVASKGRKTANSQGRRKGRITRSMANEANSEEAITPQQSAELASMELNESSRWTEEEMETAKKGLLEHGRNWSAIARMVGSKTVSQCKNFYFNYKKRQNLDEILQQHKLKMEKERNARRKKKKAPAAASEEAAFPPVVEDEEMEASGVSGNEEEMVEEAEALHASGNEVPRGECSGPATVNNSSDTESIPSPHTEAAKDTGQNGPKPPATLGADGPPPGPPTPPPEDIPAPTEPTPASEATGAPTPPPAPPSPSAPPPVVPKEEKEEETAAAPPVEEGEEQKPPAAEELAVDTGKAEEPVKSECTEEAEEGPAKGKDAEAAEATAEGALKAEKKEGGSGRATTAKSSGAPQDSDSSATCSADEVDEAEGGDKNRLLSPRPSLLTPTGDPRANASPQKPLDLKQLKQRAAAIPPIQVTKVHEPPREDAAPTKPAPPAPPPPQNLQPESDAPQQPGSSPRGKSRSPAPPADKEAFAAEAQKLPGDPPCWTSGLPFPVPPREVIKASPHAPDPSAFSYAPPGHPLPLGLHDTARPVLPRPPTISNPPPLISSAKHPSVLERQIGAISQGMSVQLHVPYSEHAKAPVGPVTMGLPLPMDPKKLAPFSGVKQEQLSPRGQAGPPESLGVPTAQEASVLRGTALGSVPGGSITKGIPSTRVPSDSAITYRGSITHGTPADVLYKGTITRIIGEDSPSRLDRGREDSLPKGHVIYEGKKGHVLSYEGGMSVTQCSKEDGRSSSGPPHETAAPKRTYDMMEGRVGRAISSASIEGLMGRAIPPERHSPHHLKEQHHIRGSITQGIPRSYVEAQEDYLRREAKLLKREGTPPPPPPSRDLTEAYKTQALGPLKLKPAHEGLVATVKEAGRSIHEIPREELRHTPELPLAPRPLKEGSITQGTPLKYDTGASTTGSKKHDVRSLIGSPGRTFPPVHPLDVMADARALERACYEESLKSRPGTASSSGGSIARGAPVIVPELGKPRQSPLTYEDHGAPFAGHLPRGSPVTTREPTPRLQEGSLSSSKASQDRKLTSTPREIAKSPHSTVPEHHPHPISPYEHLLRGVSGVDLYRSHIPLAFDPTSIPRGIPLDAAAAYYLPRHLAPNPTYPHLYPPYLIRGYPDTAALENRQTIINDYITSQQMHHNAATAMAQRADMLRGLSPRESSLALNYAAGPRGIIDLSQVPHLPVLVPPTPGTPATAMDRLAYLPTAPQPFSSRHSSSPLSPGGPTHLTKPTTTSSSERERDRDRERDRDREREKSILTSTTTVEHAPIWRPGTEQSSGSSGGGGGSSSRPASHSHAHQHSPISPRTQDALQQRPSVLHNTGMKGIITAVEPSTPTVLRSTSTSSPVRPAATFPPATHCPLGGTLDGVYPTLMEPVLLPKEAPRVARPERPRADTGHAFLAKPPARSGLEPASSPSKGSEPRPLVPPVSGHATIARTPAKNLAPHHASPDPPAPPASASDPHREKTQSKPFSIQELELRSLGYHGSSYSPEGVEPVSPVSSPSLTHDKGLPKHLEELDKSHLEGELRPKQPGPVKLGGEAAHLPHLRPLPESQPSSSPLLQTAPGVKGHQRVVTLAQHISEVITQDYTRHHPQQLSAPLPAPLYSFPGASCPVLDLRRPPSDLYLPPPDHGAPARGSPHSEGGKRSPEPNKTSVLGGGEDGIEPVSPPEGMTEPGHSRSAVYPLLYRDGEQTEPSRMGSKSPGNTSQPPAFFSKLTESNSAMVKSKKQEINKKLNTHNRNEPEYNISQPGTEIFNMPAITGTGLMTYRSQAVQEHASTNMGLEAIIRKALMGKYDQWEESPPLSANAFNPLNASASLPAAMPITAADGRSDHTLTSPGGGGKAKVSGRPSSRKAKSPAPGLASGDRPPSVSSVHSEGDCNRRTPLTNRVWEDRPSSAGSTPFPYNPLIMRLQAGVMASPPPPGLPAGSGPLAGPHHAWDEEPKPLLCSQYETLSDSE

[3] = target: T1, KDAC6 (protein deacetylase HDAC6) (Homo sapiens, UniProt Q9UBN7); test: Inhibition of human KDAC6 expressed in baculovirus expression system at 30 uM using FITC-Histone 4 acetylated peptide as substrate after 60 mins by microfluidic assay; conditions: probe FITC-Histone 4 acetylated peptide
T1 sequence (Q9UBN7 whole entry): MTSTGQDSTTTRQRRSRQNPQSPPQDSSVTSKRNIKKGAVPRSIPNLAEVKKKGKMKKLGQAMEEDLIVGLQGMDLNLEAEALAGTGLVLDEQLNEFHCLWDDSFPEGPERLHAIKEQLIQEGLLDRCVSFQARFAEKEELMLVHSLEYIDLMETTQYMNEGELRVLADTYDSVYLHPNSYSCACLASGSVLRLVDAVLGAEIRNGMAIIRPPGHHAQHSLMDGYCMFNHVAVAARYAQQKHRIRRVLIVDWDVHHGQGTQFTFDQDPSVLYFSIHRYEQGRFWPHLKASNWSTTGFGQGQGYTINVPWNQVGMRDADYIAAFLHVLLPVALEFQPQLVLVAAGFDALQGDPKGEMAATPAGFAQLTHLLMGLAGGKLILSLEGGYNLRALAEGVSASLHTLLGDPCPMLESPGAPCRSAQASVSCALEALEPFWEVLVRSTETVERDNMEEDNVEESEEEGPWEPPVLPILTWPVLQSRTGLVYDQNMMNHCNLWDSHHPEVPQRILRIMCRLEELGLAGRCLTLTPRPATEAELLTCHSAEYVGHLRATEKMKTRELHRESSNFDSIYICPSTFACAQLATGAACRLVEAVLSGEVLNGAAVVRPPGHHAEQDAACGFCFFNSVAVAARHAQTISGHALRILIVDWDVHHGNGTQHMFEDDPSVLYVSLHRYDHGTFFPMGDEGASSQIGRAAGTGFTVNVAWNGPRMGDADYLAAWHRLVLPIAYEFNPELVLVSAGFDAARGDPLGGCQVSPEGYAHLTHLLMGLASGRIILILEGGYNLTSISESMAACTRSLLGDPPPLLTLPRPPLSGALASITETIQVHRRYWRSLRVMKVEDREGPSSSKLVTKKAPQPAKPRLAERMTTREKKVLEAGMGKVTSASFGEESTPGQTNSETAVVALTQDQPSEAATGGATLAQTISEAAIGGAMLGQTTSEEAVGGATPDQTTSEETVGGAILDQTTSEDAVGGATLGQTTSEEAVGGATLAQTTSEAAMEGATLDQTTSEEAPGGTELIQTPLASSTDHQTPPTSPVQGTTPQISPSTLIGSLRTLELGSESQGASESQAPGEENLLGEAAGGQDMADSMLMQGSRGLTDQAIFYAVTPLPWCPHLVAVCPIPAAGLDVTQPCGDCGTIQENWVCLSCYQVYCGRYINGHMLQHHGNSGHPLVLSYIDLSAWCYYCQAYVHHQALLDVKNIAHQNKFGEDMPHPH

[4] = target: T2, KDAC8 (histone deacetylase 8) (Homo sapiens, UniProt Q9BY41); test: Inhibition of full length human C-terminal His-tagged KDAC8 expressed in baculovirus expression system at 30 uM using (FAM)-labeled peptide as substrate after 60 mins by microfluidic assay relative to control; conditions: probe (FAM)-labeled peptide
T2 sequence (Q9BY41 whole entry): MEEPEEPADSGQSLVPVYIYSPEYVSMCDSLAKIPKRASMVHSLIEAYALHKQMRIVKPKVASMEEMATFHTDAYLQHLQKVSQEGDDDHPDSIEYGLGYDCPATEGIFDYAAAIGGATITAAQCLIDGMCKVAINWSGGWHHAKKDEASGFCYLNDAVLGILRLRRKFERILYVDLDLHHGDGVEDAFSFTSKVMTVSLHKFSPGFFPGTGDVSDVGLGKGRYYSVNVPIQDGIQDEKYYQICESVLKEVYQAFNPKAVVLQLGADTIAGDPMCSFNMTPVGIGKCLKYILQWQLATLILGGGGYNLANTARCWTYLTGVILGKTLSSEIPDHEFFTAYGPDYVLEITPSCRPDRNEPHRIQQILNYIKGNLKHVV

[5] = target: T3, Histone deacetylase 8 (Schistosoma mansoni) (UniProt A5H660); test: Inhibition of Schistosoma mansoni KDAC8 at 30 uM using (FAM)-labeled peptide as substrate after 60 mins by microfluidic assay
T3 sequence (whole entry): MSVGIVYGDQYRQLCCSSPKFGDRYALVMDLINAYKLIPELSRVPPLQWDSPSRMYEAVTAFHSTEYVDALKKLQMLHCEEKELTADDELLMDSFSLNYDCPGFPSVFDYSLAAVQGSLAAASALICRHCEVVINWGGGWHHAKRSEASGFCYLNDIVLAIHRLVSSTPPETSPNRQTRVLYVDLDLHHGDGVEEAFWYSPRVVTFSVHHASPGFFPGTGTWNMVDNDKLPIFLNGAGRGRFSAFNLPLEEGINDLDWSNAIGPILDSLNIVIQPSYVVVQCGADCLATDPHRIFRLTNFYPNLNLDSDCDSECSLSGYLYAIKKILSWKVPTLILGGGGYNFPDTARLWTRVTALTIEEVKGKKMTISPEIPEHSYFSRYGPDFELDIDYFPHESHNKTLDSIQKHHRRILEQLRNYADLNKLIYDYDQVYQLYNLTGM

FC(F)(F)c1cccc(OCC2CN=C(S)O2)c1 (stereo not given)
inhibition at 1 h, 30 µM [1]: 2%
inhibition at 1 h, 30 µM [2]: 6%
inhibition at 1 h, 30 µM [3]: 3%
inhibition at 1 h, 30 µM [4]: 16%
inhibition [5]: 2%
